Measured values taken from article PMC10648942, “Safety and pharmacokinetics of SPR206 in subjects with varying degrees of renal impairment” (Antimicrobial Agents and Chemotherapy, 2023).
Where two headings read alike, the source gives them in different places. Bridge positions count the residues as written; N and C are the ends. Square brackets hold non-standard residues; d marks the D form. Peptide text beside a SMILES is read from it. * marks the point of attachment. X1 = NC[C@@H](CC(=O)*)c1cccc(Cl)c1; Dab = NCC[C@H](N)C(=O)O; Dap = NC[C@H](N)C(=O)O

How the values were obtained:
clinical = test: clinical; design: species or system human; AUC0–∞ LS GMR vs healthy subjects, range / AUC0–last LS GMR vs healthy subjects, range / AUC0−8, LS GMR (90% CI): unit not given beside the values; details: in vivo
Source text: This was a Phase 1, open-label study to assess the safety, tolerability, and PK of a single 100-mg IV dose of SPR206 administered to healthy adults with normal renal function and those with varying degrees of RI including subjects with ESRD on HD. Subjects were screened within 28 days prior to dosing. Study drug administration occurred on day 1 for Cohorts 1–4 (normal renal function, mild RI, moderate RI, and severe RI) and on days 1 and 5 for Cohort 5 (ESRD on HD). Subjects remained confined to the clinical study unit from day −1 (1 day prior to study drug administration) until completion of the scheduled study procedures at the end of confinement on day 4 (Cohorts 1–4) or on day 7 (Cohort 5). A follow-up safety visit occurred 7 to 14 calendar days after the last dose for all subjects.
On the morning of day 1, subjects in Cohorts 1–4 received a single 100-mg IV dose of […] infused over 1 h. Subjects in Cohort 5 received a single IV dose of SPR206 within 2 h (±1 h) after completion of regularly scheduled HD on day 1 (Period 1) and a second dose approximately 1 h prior to their regularly scheduled HD on day 5 (Period 2). Details of the HD procedure are provided in the Supplement.
(§1) Subjects in Cohorts 1–4 had serial blood samples collected to determine plasma SPR206 concentrations at pre-dose (0) and 0.5, 1, 1.25, 1.5, 2, 2.5, 3, 5, 8, 10, 12, 18, 24, and 36 h post-dose. Total voided urine was collected over a 2-h interval from −2 to 0 h (pre-dose) and at 0–4, 4–8, 8–12, 12–24, and 24–36 h post-dose. For subjects in Cohort 5, blood samples were collected on dosing days 1 and 5 pre-dose (0 h) and 0.5, 1, 1.25, 1.5, 2, 2.5, 3, 5, 8, 10, 12, 18, 24, and 36 h after dosing. On day 5 (Period 2), the 1-h post-dose sample was collected immediately prior to initiation of dialysis, and the 5-h post-dose sample was collected 10 min prior to the end of dialysis. The 36-h post-dose samples on days 3 and 7 were collected prior to the next dialysis session if scheduled on the same day. In Period 2, blood samples were collected from both the inflow (arterial) and outflow (venous) lines pre-dialysis and at approximately 1, 2, 3, and 4 h after initiation of HD on day 5. If the HD session was shorter or longer than 4 h after the start of HD, a final sample was collected at the end of dialysis. Plasma and urine samples were assayed for SPR206 using a validated liquid chromatography tandem mass spectrometry method (QPS, LLC, Newark, DE, USA). For plasma, the assay range was 50 to 50,000 ng/mL, and for urine, the range was 100 to 50,000 ng/mL. In plasma, the intraday precision (% coefficient of variation) ranged from 1.3% to 7.7%, and the accuracy (% relative error) ranged from 1.6% to 6.0%. In urine, the intraday precision (% coefficient of variation) ranged from 1.7% to 7.5%, and the accuracy (% relative error) ranged from −4.8% to 7.3%. Additional details are provided in the Supplement.
For all cohorts, the following PK parameters were calculated using noncompartmental methods based on plasma SPR206 concentrations: C max, T max, AUC0−last, AUC0−8, AUC0−∞, terminal elimination half-life (t 1/2), CL, and volume of distribution at the terminal phase (V Z). For Cohort 5, additional parameters were extraction ratio (ER), estimated hemodialysis clearance, and amount of the dose removed by hemodialysis. The ER was calculated as 100 × [(CA − CV)/CA], where CA and CV were predialyzer and postdialyzer paired drug concentrations at the arterial and venous sites. SPR206 clearance during HD (CLHD) was calculated using the following equation: CLHD = Q × ER, where Q was the known blood flow through the dialyzer. The amount of SPR206 removed by dialysis (XHD) was estimated by multiplying the AUC during dialysis [i.e., AUC from the beginning of dialysis to end of dialysis (AUCon–HD)] by CLHD: XHD = AUCon–HD × CLHD.
Mean and individual plasma concentration-time curves were tabulated for each cohort (and for Cohort 5 subjects by period). […]

[1] = design: species or system human; details: in vivo
Description: as §1, with “Supplement. Urine PK parameters included Aet, Ae%, Aeu, CLR, Fe, and Feu.” for “Supplement.”

[2] = Safety/tolerability (TEAEs, laboratory, ECG), Phase 1 renal impairment study; format: in vivo, human
[3] = design: species or system human; AUC0-8 vs eGFR regression, Coefficient (95% CI) / AUC0-last vs eGFR regression, Intercept / AUC0-last vs eGFR regression, Coefficient (95% CI) / AUC0-∞ vs eGFR regression, Intercept / AUC0-∞ vs eGFR regression, Coefficient (95% CI) / AUC0-8 vs eGFR regression, Intercept: unit not given beside the values; details: in vivo
Description: To model the relationship between renal function and PK parameters, a linear regression analysis was performed using log-transformed values of AUC0–8, AUC0–last, AUC0–∞, C max, and CL, which were dependent variables. The independent variable to predict the PK parameters was eGFR after adjusting for baseline covariates (age, gender, race, and body weight). Parameter estimates, standard errors, confidence intervals (CIs), and P-values were presented.

[4] = human, in vivo, cited from earlier work
[5] = human, in vivo; cited from earlier work
[6] = human; cited from earlier work
kidney cell = details: cited from earlier work
[7] = rat, in vivo; cited from earlier work
Acinetobacter species = tested on: Acinetobacter species; design: method as in doi:10.1093/ofid/ofac492.1306, doi:10.1093/ofid/ofac492.1307; details: Acinetobacter species clinical isolates; cited from earlier work
P. aeruginosa = tested on: P. aeruginosa; design: method as in doi:10.1093/ofid/ofac492.1306, doi:10.1093/ofid/ofac492.1307; details: P. aeruginosa clinical isolates; cited from earlier work
Enterobacterales = tested on: Enterobacterales; design: method as in doi:10.1093/ofid/ofac492.1306, doi:10.1093/ofid/ofac492.1307; details: Enterobacterales clinical isolates; cited from earlier work
[8] = cited from earlier work

CC(C)C[C@@H]1NC(=O)[C@@H](Cc2ccccc2)NC(=O)[C@H](CCN)NC(=O)[C@@H](NC(=O)[C@H](CN)NC(=O)[C@@H](NC(=O)C[C@H](CN)c2cccc(Cl)c2)[C@@H](C)O)CCNC(=O)[C@H]([C@@H](C)O)NC(=O)[C@H](CCN)NC(=O)[C@H](CCN)NC1=O [SPR206] (X1-T[Dap][Dab][Dab][dF]L[Dab][Dab]T; lactam 3-C (inferred))
AUC0–last greater than healthy subjects (clinical; human): 131%
CL lower than healthy subjects (clinical; human): 75%
time of peak plasma concentration (end of infusion) (clinical; human): 1 h
AUC(0-t) (clinical; human, AUC0–8, LS GM (SE)): 21800 ng·h/mL
AUC(0-t) (clinical; human, AUC0−8, LS GM (SE)): 17300 ng·h/mL
Cmax (clinical; human, C max, LS GM (SE)): 5900 ng/mL
Cmax (clinical; human, iv, C max, geometric mean (CV %)): 5900 ng/mL
Cmax (clinical; human, mean peak concentration (C max)): ~6500 ng/mL
AUC0–last LS GMR vs healthy subjects, range (clinical): 1.39-3.39
AUC0–∞ LS GMR vs healthy subjects, range (clinical): 1.39-4.09
AUC0−8, LS GMR (90% CI) (clinical): 0.59 (0.52, 0.67)
C max LS GMR vs healthy subjects, range (clinical): 1.07-1.14
CL LS GMR vs healthy subjects, range (clinical): 0.71-0.24
mean AUC0–last greater in subjects with RI vs healthy subjects (clinical): 39-239%
mean AUC0–last lower, dialyzed vs nondialyzed (clinical): 51%
mean plasma CL lower vs healthy subjects (clinical): 29-76%
mean CLR as % of total CL ([1]; human): 24.6%
time up to which urine concentrations were quantifiable [1]: up to 36 h
time within which SPR206 was excreted in urine [1]: ≤ 12 h
deaths, treatment-related serious AEs, TEAEs leading to study discontinuation ([2]; all cohorts): No deaths, treatment-related serious AEs, or TEAEs leading to study discontinuation were reported
TEAE headache, overall incidence ([2]; in vivo): 13.5%
TEAE paresthesia, overall incidence ([2]; in vivo): 8.1%
clinical laboratory results, ECG findings, physical examination ([2]; in vivo): No clinically significant abnormalities
relation of the two serious (severe) TEAEs to study drug ([2]; in vivo): unrelated to study drug
serum creatinine levels from screening through follow-up ([2]; in vivo): remained stable
subjects whose TEAEs were mild ([2]; in vivo): 19 (51.4%) subjects (%)
subjects with at least one TEAE ([2]; in vivo): 23 (62.2%) subjects (%)
subjects with moderate TEAEs (infusion site phlebitis, drug hypersensitivity) leading to study drug discontinuation ([2]; in vivo): 5.4%
subjects with treatment-related AEs ([2]; in vivo): 13 (35.1%) subjects (%)
treatment-related adverse events, severity ([2]; in vivo): Mostly mild but no serious treatment-related adverse events were reported
TEAE oral paresthesia, overall incidence ([2]; in vivo, po): 8.1%
AUC0-8 vs eGFR regression, Coefficient (95% CI) [3]: −0.0063 (−0.0083, –0.0044)
AUC0-8 vs eGFR regression, Intercept [3]: 3.5
AUC0-last vs eGFR regression, Coefficient (95% CI) [3]: −0.0147 (−0.0168, –0.0125)
AUC0-last vs eGFR regression, Intercept [3]: 4.5
AUC0-∞ vs eGFR regression, Coefficient (95% CI) [3]: −0.0161 (−0.0190, –0.0131)
AUC0-∞ vs eGFR regression, Intercept [3]: 4.6
C max vs eGFR regression, Coefficient (95% CI) [3]: −0.0018 (−0.0040, 0.0005)
C max vs eGFR regression, Intercept [3]: 2.0
CL vs eGFR regression, Coefficient (95% CI) [3]: 0.0172 (0.0148, 0.0196)
CL vs eGFR regression, Intercept [3]: 0.1
AUC0–∞ ([4]; iv): 20400 ng·h/mL
C max ([4]; iv): 5300 ng/mL
total CL ([4]; iv): 5.0 L/h
pharmacokinetic profile in a Phase 1 study [4]: dose-proportional
tolerability in a Phase 1 study [4]: well tolerated
AUC0–8 [5]: 20100 ng·h/mL
C max [5]: 4400 ng/mL
Protein binding [6]: ≤ 12.8%
kidney cell cytotoxicity compared with polymyxin B (kidney cell): lower kidney cell cytotoxicity
kidney exposure compared with polymyxin B [7]: lower kidney exposure

colistin
MIC90 (Acinetobacter species): 1 µg/mL
MIC90 (P. aeruginosa): 1 µg/mL
MIC90 (Enterobacterales): 0.5 µg/mL
route of elimination ([8]; in vivo): eliminated primarily by non-renal mechanisms

colistin methanesulfonate
route of elimination ([8]; in vivo): eliminated predominantly by renal excretion

polymyxin B
route of elimination [8]: eliminated primarily by non-renal mechanisms
